Values joined by “and” are separate entries in the source; they are usually repeats but may differ in a detail not shown here. Identical values can stand only once.
Columns and labels:
[1] = tested on: A-549; experiment: Propidium iodide anti-proliferative assay; assay type: cell-based; settings: Homo sapiens, A549; 48 h incubation; read-out: IC50 ± SEM A-549
Experimental: (§1) The propidium iodide (PI) tests^31, 32 were further used for assessment of the IC50 of all synthesized compounds and compared to Doxorubicin as a positive control against four cancer cell lines; pancreatic cancer cell line (Panc-1), epithelial line cancer cell (A-549), breast cancer cell line (MCF-7), and colon cancer cell line (HT-29).
(§2) Using the propidium iodide fluorescence assay with doxorubicin as the reference drug, IC50 of the 24 compounds 7a-x, was carried out according to a previously reported procedure^31, 32 against a panel of four human cancer cell lines; epithelial cancer cell line (A-549), breast cancer cell line (MCF-7), colon cancer cell line (HT-29) and pancreas cancer cell line (Panc-1). Compounds 7a-x were incubated with cancer cells for 2 days at different concentrations. See Appendix A.
(§3) To explore the antiproliferative potential of compounds propidium iodide fluorescence assay was performed using different cell lines (melanoma cancer cell line LOX-IMVI, pancreatic cancer cell line (Panc-1), epithelial line cancer cell (A-549), breast cancer cell line (MCF-7), and colon cancer cell line (HT-29). To calculate the total nuclear DNA, a fluorescent dye (propidium iodide, PI) is used which can attach to the DNA,^9,^10 thus offering a quick and precise technique. PI cannot pass through the cell membrane and its signal intensity can be considered as directly proportional to the quantity of cellular DNA. Cells whose cell membranes are damaged or have changed permeability are counted as dead ones. The assay was performed by seeding the cells of different cancer cell lines at a density of 3000-7500 cells/well (in 200µl medium) in culture plates followed by incubation for 24h at 37 °C in humidified 5% CO2/95% air atmospheric conditions. The medium was removed; the compounds were added to the plates at 10 µM concentrations (in 0.1% DMSO) in triplicates, followed by incubation for 48 h. DMSO (0.1%) was used as control. After incubation, medium was removed followed by the addition of PI (25 µl, 50µg/mL in water/medium) to each well of the plates. At -80 °C, the plates were allowed to freeze for 24 h, followed by thawing at 25 °C. A fluorometer (Polar-Star BMG Tech) was used to record the readings at excitation and emission wavelengths of 530 and 620 nm for each well. The percentage cytotoxicity of compounds was calculated using the following formula:
(§4) Where ATC= Absorbance of treated cells and AC= Absorbance of control. […]

[2] = tested on: HT-29; experiment: Propidium iodide anti-proliferative assay; assay type: cell-based; settings: Homo sapiens, 48 h incubation, read-out: IC50 ± SEM HT-29
Experimental: as §1, §2, §3, §4

[3] = tested on: MCF-7; experiment: Propidium iodide anti-proliferative assay; assay type: cell-based; settings: Homo sapiens, MCF7; 48 h incubation; read-out: IC50 ± SEM MCF-7
Experimental: as §1, §2, §3, §4

[4] = tested on: Panc-1; experiment: Propidium iodide anti-proliferative assay; assay type: cell-based; settings: Homo sapiens, 48 h incubation, read-out: IC50 ± SEM Panc-1
Experimental: as §1, §2, §3, §4

[5] = MTT cell viability assay in normal cells; assay type: cell-based; settings: human, MCF-10A normal mammary epithelial cells
Experimental: To check the safety of prepared compounds and evaluate their selectivity towards tumor cells over normal ones, the toxicity of compounds 7a-x were evaluated by 3-(4,5-Dimethylthiazole-2-yl)-2,5-diphenyltetrazol (MTT) assay on the normal human mammary epithelial cell line (MCF-10 A). The human mammary epithelial cell lines were incubated for four days with a concentration of 50 µM of compounds 7a-x.
MTT assay was done to determine the effect of the synthesized compounds on the viability of mammary epithelial cells (MCF-10 A). Compounds 7a-x were incubated with MCF-10 A cells for 4 days at 50 µM concentration, and the viability of cells was determined. See Appendix A.
MTT assay was carried out to study the effect of compounds on mammary epithelial cells (MCF-10A).^7, ^8 The medium in which cells were propagated contained Dulbecco's modified Eagle's medium (DMEM)/ Ham's F-12 medium (1:1) supplemented with epidermal growth factor (20 ng/mL), hydrocortisone (500 ng/mL), insulin (10 μg/mL), 2 mM glutamine and 10% foetal calf serum. After every 2-3 days, the cells were passaged using trypsin ethylenediamine tetra acetic acid (EDTA). The cells were seeded at a density of 10^4 cells mL^-1 in flat-bottomed culture plates containing 96 wells each. After 24 h, medium was removed from the plates and the compounds in (in 0.1% DMSO) were added (in 200 μL medium to yield a final concentration of 0.1% v/v) to the wells of plates. A single compound was designated with four wells followed by incubation of plates for 96h at 37°C. After incubation, medium was removed completely from the plates followed by addition of MTT (0.4 mg/mL in medium) to each well and subsequent incubation of plates for 3h. MTT (along with the medium) was removed and DMSO (150μL) was added to each well of the culture plates, followed by vortexing and subsequent measurement of absorbance (at 540 nm) using microplate reader.

[6] = tested on: Caspase-8 in MCF-7 breast cancer cells; experiment: Caspase-8 assay; assay type: cell-based, human
[7] = tested on: Caspase-9 in MCF-7 breast cancer cells; experiment: Caspase-9 assay; assay type: cell-based, human
[8] = tested on: Cytochrome C in MCF-7 human breast cancer cell line; experiment: Cytochrome C assay; assay type: cell-based
[9] = tested on: Panc-1, A-549, MCF-7 and HT-29; experiment: Propidium iodide anti-proliferative assay, four cell lines together; assay type: cell-based; settings: Homo sapiens; range over Panc-1, A-549, MCF-7, HT-29; read-out: IC50 range on the four tested cell lines
Experimental: as §1, §2
as §3, with “The medium was removed; the compounds were added to the plates at 10 µM concentrations (in 0.1% DMSO) in triplicates, followed by incubation for 48 h. DMSO (0.1%) was used as control. After incubation, medium was removed followed by the addition of PI (25 µl, 50µg/mL in water/medium) to each well of the plates. At -80 °C, the plates were allowed to freeze for 24 h, followed by thawing at 25 °C.” left out
as §4

[10] = tested on: Caspase-3 in MCF-7 breast cancer cells; experiment: Caspase-3 assay
Experimental: All reagents were allowed to reach room temperature before use. All liquid reagents were gently mixed before use. The number of 8-well strips needed for the assay was determined. These were inserted into the frame(s) for current use. A total of 100 µL of the Standard Diluent Buffer was added to the zero standard wells. Well(s) reserved for chromogen blank were left empty. A total of 100 µL of standards and controls or diluted samples was added to the appropriate microtiter wells. The sample dilution chosen was optimized for each experimental system. The side of the plate was gently tapped on to
mix. Wells were covered with a plate cover and incubated for 2 h at room temperature. The solution was thoroughly aspirated or decanted from the wells and the liquid was discarded; wells were washed four times. […] The side of the plate was gently tapped on to mix. The plate was covered with a plate cover and incubated for 1h at room temperature. The solution was thoroughly aspirated or decanted from wells and the liquid was discarded; wells were washed four times. A total of 100 µL Anti-Rabbit IgG HRP Working Solution was added to each well except the chromogen blank(s). The working dilution was prepared as described in Preparing IgG HRP. Wells were covered with the plate cover and incubated for 30 min at room temperature. The solution was thoroughly aspirated or decanted from the wells and the liquid was discarded. Wells were washed four times. A total of 100 µL of Stabilized Chromogen was added to each well. The liquid in the wells began to turn blue. It was incubated for 30 min at room temperature and in the dark. The incubation time for chromogen substrate was determined by the microtiter plate reader used. Many plate readers have the capacity to record a maximum optical density (O.D.) of 2.0. The O.D. values were monitored, and the substrate reaction was stopped before the O.D. of the positive wells exceeds the limits of the instrument. The O.D. values at 450 nm could only be read after the Stop Solution had been added to each well. A total of 100 µL of Stop Solution was added to each well. The side of the plate was gently tapped to mix. The solution in the wells changed from blue to yellow. The absorbance of each well was read at 450 nm, having blanked the plate reader against a chromogen blank composed of 100 µL each of Stabilized Chromogen and Stop Solution. The plate was read within 2 h after adding the Stop Solution. A curve fitting software was used to generate the standard curve.
The concentrations for unknown samples and controls from the standard curve were read. Value(s) obtained for sample(s) by the appropriate dilution factor were multiplied to correct for the dilution in step 3.

[11] = tested on: BAX in MCF-7; experiment: BAX activation assay
Experimental: All reagents were brought to room temperature for at least 30 min before opening (except the human BAX-α Standard). Human BAX-α Standard solution was not be left at room temperature for more than 10 min. Duplicates of all standards, controls, and samples were run. The Assay Layout Sheet was used to determine the number of wells to be used, and any remaining wells were put with the desiccant back into the pouch, and the ziplock was sealed. Unused wells were stored at 4 ◦C. A total of 100 µL of Assay Buffer was pipetted into the S0 (0 pg/mL standard) wells. A total of 100 µL of Standards #1 through #6 was pipetted into the appropriate wells. A total of 100 µL of the samples was pipetted into the appropriate wells. The plate was gently tapped to mix the contents. The plate was sealed and incubated at room temperature on a plate shaker for 1 h at ~500 rpm. The contents of the wells were emptied and washed by adding 400 µL of wash solution to every well. The wash was repeated four more times for a total of five washes. After the final wash, the wells were emptied or aspirated and firmly the plate on a lint-free paper towel was tapped to remove any remaining wash buffer. A total of 100 µL of yellow antibody was pipetted into each well, except the Blank. The plate was sealed and incubated at room temperature on a plate shaker for 1 h at ~500 rpm. The contents of the wells were emptied and washed by adding 400 µL of wash solution to every well. The wash was repeated four more times for a total of five washes. After the final wash, the wells were emptied or aspirated, and the plate was firmly tapped on a lint-free paper towel to remove any remaining wash buffer. A total of 100 µL of blue Conjugate was added to each well, except the Blank. The plate was sealed and incubated at room temperature on a plate shaker for 30 min at ~500 rpm. The contents of the wells were emptied and washed by adding 400 µL of wash solution to every well. The wash was repeated four more times for a total of five washes. After the final wash, the wells were emptied or aspirated and the plate was firmly tapped on a lint-free paper towel to remove any remaining wash buffer. A total of 100 µL of Substrate Solution was pipetted into each well. It was incubated for 30 min at room temperature on a plate shaker at ~500 rpm. A total of 100 µL Stop Solution was pipetted into to each well. The plate reader was blanked against the Blank wells, and the optical density was read at 450 nm. The average net optical density (OD) bound for each standard and sample was calculated by subtracting the average Blank OD from the average OD for each standard and sample. Using linear graph paper, the Average Net OD for each standard versus BAX concentration in each standard were plotted. A straight line was approximated through the points. The concentration of BAX in the unknowns could be determined by interpolation.

[12] = tested on: Bcl-2 in MCF-7; experiment: Bcl-2 inhibition assay
Experimental: All reagents were thoroughly mixed without foaming before use. The microwells were washed twice with approximately 300 µL Wash Buffer per well with the thorough aspiration of microwell contents between washes. Care was taken not to scratch the surface of the microwells. After the last wash, the wells were emptied and microwell strips were tapped on an absorbent pad or paper towel to remove excess Wash Buffer. The microwell strips were used immediately after washing or placed upside down on a wet absorbent paper for not longer than 15 min. Wells were not allowed to dry. A total of 100 µL of Sample Diluent was added in duplicate to all standard wells and the blank wells. Standard (1:2 dilution) in duplicate was prepared ranging from 32 to 0.5 ng/mL. A total of 100 µL of Sample Diluent, in duplicate, was added to the blank wells. A total of 80 µL of Sample Diluent, in duplicate, was added to the sample wells. A total of 20 µL of each sample, in duplicate, was added to the designated wells. A total of 50 µL of diluted biotin was added, conjugated to all wells, including the blank wells. It was covered with a plate cover and incubated at room temperature on a microplate shaker at 100 rpm for 2 h. The plate cover was removed and the wells were emptied. Microwell strips were washed times as described in Step 2. A total of 100 µL of diluted Streptavidin-HRP was added to all wells, including the blank wells. It was covered with a plate cover and incubated at room temperature on a microplate shaker at 100 rpm for 1 h. The plate cover was removed and the wells were emptied. Microwell strips were washed three times, as described in Step 2. A total of 100 µL of mixed TMB Substrate Solution was pipetted into all wells, including the blanks. The microwell strips were incubated at room temperature (18 ◦C to 25 ◦C) for about 15 min, on a rotator set at 100 rpm. Direct exposure to intense light was avoided. The point at which the substrate reaction is stopped was determined by the ELISA reader. Many ELISA readers record absorbance only up to 2.0 O.D. Therefore, the color development within individual microwells was watched by the person running the assay, and the substrate reaction was stopped before positive wells were no longer properly detectable. The enzyme reaction was stopped by quickly pipetting 100 µL of Stop Solution into each well, including the blank wells. It was important that the Stop Solution was spread quickly and uniformly throughout the microwells to inactivate the enzyme completely. Results were read immediately after the Stop Solution was added or within one hour if the microwell strips were stored at 2–8 ◦C in the dark. The absorbance of each microwell was read on a spectrophotometer using 450 nm as the primary wavelength.

SMILES	IC50 [1] [µM]	IC50 [2] [µM]	IC50 [3] [µM]	IC50 [4] [µM]	viability at 96 h, 50 µM [5] [%]	melting point [°C]	Caspase-8 Fold change ([6]; MCF-7, vs untreated control) [fold]	Caspase-8 Conc ([6]; MCF-7 breast cancer cells) [ng/mL]	Caspase-9 Fold change ([7]; MCF-7, vs untreated control) [fold]	Caspase-9 Conc ([7]; MCF-7 breast cancer cells) [ng/mL]	Cytochrome C Fold change ([8]; MCF-7, vs untreated control) [fold]	Cytochrome C Conc ([8]; MCF-7 breast cancer cells) [ng/mL]	IC50 [9] [µM]	Caspase-3 Fold change ([10]; MCF-7, vs untreated control) [fold]	Caspase-3 Conc ([10]; MCF-7 breast cancer cells) [pg/mL]	BAX Conc ([11]; MCF-7)	BAX Fold change ([11]; MCF-7, vs untreated control) [fold]	Bcl-2 Conc ([12]; MCF-7)	Bcl-2 Fold reduction ([12]; MCF-7, vs untreated control) [fold]
COc1cc(/C=C/C(=O)c2ccc(NC(=O)CSc3nnc(-c4ccc5[nH]c(-c6ccc(Cl)cc6)nc5c4)o3)cc2)cc(OC)c1OC [Compound 7j, 2-{5-[2-(4-Chlorophenyl)-1 H-benzo[d]imidazol-5-yl]-1,3,4-oxadiazol-2-ylthio}-N-{4-[(E)-3-(3,4,5-trimethoxyphenyl)acryloyl]phenyl}acetamide]	9.95 ± 1.1	10.7 ± 1.1	9.4 ± 1.2	10.3 ± 1.2	89	223 to 225	–	–	–	–	–	–	–	–	–	–	–	–	–
COc1cccc2c1C(=O)c1c(O)c3c(c(O)c1C2=O)C[C@@](O)(C(=O)CO)C[C@@H]3O[C@H]1C[C@H](N)[C@H](O)[C@H](C)O1 [Doxorubicin, reference compound]	1.21 ± 0.1	1.01 ± 0.1	0.9 ± 0.1	1.41 ± 0.1	–	–	10.00	1.750	17.40	16.200	13.10	0.604	0.9 to 1.41	7.65	503.200 ± 4.20	276 pg/mL and 276.500 pg/mL	32.5	0.98 ng/mL and 0.985 ng/mL	5.1
COc1ccc(/C=C/C(=O)c2ccc(NC(=O)CSc3nnc(-c4ccc5[nH]c(-c6ccc(OC)c(OC)c6)nc5c4)o3)cc2)cc1OC [Compound 7s, 2-{5-[2-(3,4-Dimethoxyphenyl)-1 H-benzo[d]imidazol-5-yl]-1,3,4-oxadiazol-2-ylthio}-N-{4-[(E)-3-(3,4-dimethoxyphenyl)acryloyl]phenyl}acetamide]	3.8 ± 0.6	4.55 ± 0.6	3.15 ± 0.5	4.3 ± 0.6	87	190 to 193	–	–	–	–	–	–	–	–	–	–	–	–	–
COc1ccc(/C=C/C(=O)c2ccc(NC(=O)CSc3nnc(-c4ccc5[nH]c(-c6ccc(Cl)cc6)nc5c4)o3)cc2)cc1OC [Compound 7i, 2-{5-[2-(4-Chlorophenyl)-1 H-benzo[d]imidazol-5-yl]-1,3,4-oxadiazol-2-ylthio}-N-{4-[(E)-3-(3,4-dimethoxyphenyl)acryloyl]phenyl}acetamide]	9.7 ± 1.1	10.2 ± 1.3	9.2 ± 1	10.2 ± 1.2	84	208 to 210	–	–	–	–	–	–	–	–	–	–	–	–	–
COc1ccc(/C=C/C(=O)c2ccc(NC(=O)CSc3nnc(-c4ccc5[nH]c(-c6cc(OC)c(OC)c(OC)c6)nc5c4)o3)cc2)cc1 [Compound 7w, 2-{5-[2-(3,4,5-Trimethoxyphenyl)-1 H-benzo[d]imidazol-5-yl]-1,3,4-oxadiazol-2-ylthio}-N-{4-[(E)-3-(4-methoxyphenyl)acryloyl]phenyl}acetamide]	10.9 ± 1.1	11.2 ± 1.3	10.2 ± 1.2	11.2 ± 1.2	91	200 to 204	–	–	–	–	–	–	–	–	–	–	–	–	–
COc1ccc(-c2nc3cc(-c4nnc(SCC(=O)Nc5ccc(C(=O)/C=C/c6cc(OC)c(OC)c(OC)c6)cc5)o4)ccc3[nH]2)cc1OC [Compound 7t, 2-{5-[2-(3,4-Dimethoxyphenyl)-1 H-benzo[d]imidazol-5-yl]-1,3,4-oxadiazol-2-ylthio}-N-{4-[(E)-3-(3,4,5-trimethoxyphenyl)acryloyl]phenyl}acetamide]	10.6 ± 1.1	10.8 ± 1.2	10.1 ± 1	10.9 ± 1.2	88	190 to 193	–	–	–	–	–	–	–	–	–	–	–	–	–
COc1ccc(/C=C/C(=O)c2ccc(NC(=O)CSc3nnc(-c4ccc5[nH]c(-c6cc(OC)c(OC)c(OC)c6)nc5c4)o3)cc2)cc1OC [Compound 7x, 2-{5-[2-(3,4,5-Trimethoxyphenyl)-1 H-benzo[d]imidazol-5-yl]-1,3,4-oxadiazol-2-ylthio}-N-{4-[(E)-3-(3,4-dimethoxyphenyl)acryloyl]phenyl}acetamide]	11.5 ± 1.2	12.5 ± 1.5	10.8 ± 1.1	11.8 ± 1.2	85	212 to 215	–	–	–	–	–	–	–	–	–	–	–	–	–

Source: article PMC10504751, “Chalcone/1,3,4-Oxadiazole/Benzimidazole hybrids as novel anti-proliferative agents inducing apoptosis and inhibiting EGFR & BRAFV^600E” (BMC Chemistry, 2023)
